Molecules are shown by their SMILES.

The first assay concerns HBV. As to the kind of experiment: HBV inhibition assay in HepG2.2.15 cells (qPCR of extracellular HBV DNA). It is filed as cell-based, Hepatitis B virus. To be noted: Hepatitis B virus, HepG2.2.15, 120 h, extracellular HBV DNA by qPCR, five days after compound treatment. The source says: HepG2.2.15 is a stably-transfected cell line containing the HBV genome. It is derived from the hepatoblastoma cell line Hep G2 (American Type Culture Collection, ATCC® HB-8065™) by the published procedures described in reference: MA Selles et al. Proc. Natl. Acad. Sci. USA 1987, 84, 1005-1009. The cell line was maintained in Dulbecco's modified Eagle's medium and nutrient mixture F-12 (DMEM/F-12, Gibco, Cat.#: 11320-033) supplemented with 10% fetal bovine serum (Gibco, Cat.#:10099-141), 100 U/mL penicillin, 100 μg/mL streptomycin (Gibco, Cat.#:15140-122), and 0.3 mg/mL of G418 Sulfate (Gibco, Cat.#: 10131-027).
HepG2.2.15 cells were seeded into 96-well plates at a density of 3×10^4 cells per well in culture media of 100 μL DMEM/F-12 supplemented with 2.5% fetal bovine serum, 100 U/mL penicillin, 100 μg/mL streptomycin and cultured overnight at 37° C. The test compounds were serially half-log diluted in DMSO, then diluted 100 times in culture media. 100 μL culture media containing diluted compounds were added into the plates to reach 0.5% final concentration of DMSO in every well. Five days after compound treatment, culture supernatant was collected for further analysis.
For quantitative PCR detection of extracellular HBV DNA, culture supernatant was processed by 500 μg/mL Proteinase K (Sigma, Cat.#:P2308) digestion at 50° C. for 1 hour. After heat inactivation of the enzyme at 95° C. for 15 minutes, the samples were subjected to HBV DNA quantification by qPCR. The effective compound concentration at which HBV replication was inhibited by 50% (EC50) was determined.
Consider `C[C@H]1Cn2ncc(N3CC(N4CCC(C(=O)O)C4)CC3=O)c2CN1C(=O)Nc1cc(F)c(F)c(F)c1` (stereo partly drawn) [Example 5, 1-[1-[(6S)-6-methyl-5-[(3,4,5-trifluorophenyl)carbamoyl]-6,7-dihydro-4H-pyrazolo[1,5-a]pyrazin-3-yl]-5-oxo-pyrrolidin-3-yl]pyrrolidine-3-carboxylic acid], for which the EC50 (usually the concentration at which the effect is half-maximal) is 240 nM. `C[C@H]1Cn2ncc(N3C(=O)CC(N4CCC[C@@H]4C(=O)O)[C@@H]3C)c2CN1C(=O)Nc1cc(F)c(F)c(F)c1` (stereo partly drawn) [Example 4, (2R)-1-[(2S)-2-methyl-1-[(6S)-6-methyl-5-[(3,4,5-trifluorophenyl)carbamoyl]-6,7-dihydro-4H-pyrazolo[1,5-a]pyrazin-3-yl]-5-oxo-pyrrolidin-3-yl]pyrrolidine-2-carboxylic acid]: it took 105 nM to reach a half-maximal effect (EC50). In turn, `C[C@H]1Cn2ncc(N3CC(c4ncccc4C(=O)O)CC3=O)c2CN1C(=O)Nc1cc(F)c(F)c(F)c1` (stereo partly drawn) [Example 18, 2-[1-[(6S)-6-methyl-5-[(3,4,5-trifluorophenyl)carbamoyl]-6,7-dihydro-4H-pyrazolo[1,5-a]pyrazin-3-yl]-5-oxo-pyrrolidin-3-yl]pyridine-3-carboxylic acid] yielded an EC50 of 102 nM. Take `C[C@H]1Cn2ncc(N3CC(N4CCC[C@@H]4C(=O)O)CC3=O)c2CN1C(=O)Nc1cc(F)c(F)c(F)c1` (stereo partly drawn) [Example 9, (2R)-1-[1-[(6S)-6-methyl-5-[(3,4,5-trifluorophenyl)carbamoyl]-6,7-dihydro-4H-pyrazolo[1,5-a]pyrazin-3-yl]-5-oxo-pyrrolidin-3-yl]pyrrolidine-2-carboxylic acid]: the response was half-maximal at 124 nM (EC50). With `C[C@H]1Cn2ncc(N3CC(c4ccc(C(=O)O)cc4)CC3=O)c2CN1C(=O)Nc1cc(F)c(F)c(F)c1` (stereo partly drawn) [Example 16, 4-[1-[(6S)-6-methyl-5-[(3,4,5-trifluorophenyl)carbamoyl]-6,7-dihydro-4H-pyrazolo[1,5-a]pyrazin-3-yl]-5-oxo-pyrrolidin-3-yl]benzoic acid], the EC50 was 228 nM. Consider `C[C@H]1Cn2ncc(N3CC4COCC(C3=O)N4CC(=O)O)c2CN1C(=O)Nc1cc(F)c(F)c(F)c1` (stereo partly drawn) [Example 13, 2-[7-[(6S)-6-methyl-5-[(3,4,5-trifluorophenyl)carbamoyl]-6,7-dihydro-4H-pyrazolo[1,5-a]pyrazin-3-yl]-6-oxo-3-oxa-7,9-diazabicyclo[3.3.1]nonan-9-yl]acetic acid], for which the response was half-maximal at 99 nM (EC50).

In the case of `C[C@H]1[C@H](C)n2ncc(N3CC(N4CCC[C@H]4C(=O)O)CC3=O)c2CN1C(=O)Nc1cc(F)c(F)c(F)c1` (stereo partly drawn) [Example 6-1, (2S)-1-[1-[(6S,7S)-6,7-dimethyl-5-[(3,4,5-trifluorophenyl)carbamoyl]-6,7-dihydro-4H-pyrazolo[1,5-a]pyrazin-3-yl]-5-oxo-pyrrolidin-3-yl]pyrrolidine-2-carboxylic acid], the EC50 is 112 nM. The EC50 values of the last two molecules are within 1.5-fold of each other. Turning to `C[C@H]1Cn2ncc(N3CC(Nc4ccccc4C(=O)O)CC3=O)c2CN1C(=O)Nc1cc(F)c(F)c(F)c1` (stereo partly drawn) [Example 12, 2-[[1-[(6S)-6-methyl-5-[(3,4,5-trifluorophenyl)carbamoyl]-6,7-dihydro-4H-pyrazolo[1,5-a]pyrazin-3-yl]-5-oxo-pyrrolidin-3-yl]amino]benzoic acid], the EC50 was found to be 288 nM. Consider `C[C@H]1Cn2ncc(N3CC(c4ccccc4C(=O)O)CC3=O)c2CN1C(=O)Nc1cc(F)c(F)c(F)c1` (stereo partly drawn) [Example 7, 2-[1-[(6S)-6-methyl-5-[(3,4,5-trifluorophenyl)carbamoyl]-6,7-dihydro-4H-pyrazolo[1,5-a]pyrazin-3-yl]-5-oxo-pyrrolidin-3-yl]benzoic acid], for which it took 22 nM to reach a half-maximal effect (EC50). Against the preceding molecule, the EC50 is about 13-fold lower. Molecule `C[C@H]1Cn2ncc(N3CC(N(C)CC(=O)O)CC3=O)c2CN1C(=O)Nc1cc(F)c(F)c(F)c1` (stereo partly drawn) [Example 3, 2-[Methyl-[1-[(6S)-6-methyl-5-[(3,4,5-trifluorophenyl)carbamoyl]-6,7-dihydro-4H-pyrazolo[1,5-a]pyrazin-3-yl]-5-oxo-pyrrolidin-3-yl]amino]acetic acid] gave an EC50 of 139 nM. `C[C@H]1Cn2ncc(N3C(=O)CC(N4CCC[C@H]4C(=O)O)[C@@H]3C)c2CN1C(=O)Nc1cc(F)c(F)c(F)c1` (stereo partly drawn) [Example 2, (2S)-1-[(2S)-2-methyl-1-[(6S)-6-methyl-5-[(3,4,5-trifluorophenyl)carbamoyl]-6,7-dihydro-4H-pyrazolo[1,5-a]pyrazin-3-yl]-5-oxo-pyrrolidin-3-yl]pyrrolidine-2-carboxylic acid] returned an EC50 of 98 nM.

For the molecule `C[C@H]1Cn2ncc(N3CC(c4cccc(C(=O)O)c4)CC3=O)c2CN1C(=O)Nc1cc(F)c(F)c(F)c1` (stereo partly drawn) [Example 8, 3-[1-[(6S)-6-methyl-5-[(3,4,5-trifluorophenyl)carbamoyl]-6,7-dihydro-4H-pyrazolo[1,5-a]pyrazin-3-yl]-5-oxo-pyrrolidin-3-yl]benzoic acid], the EC50 was 89 nM. Consider `C[C@H]1Cn2ncc(N3CC(c4ccc(F)cc4C(=O)O)CC3=O)c2CN1C(=O)Nc1cc(F)c(F)c(F)c1` (stereo partly drawn) [Example 15, 5-Fluoro-2-[1-[(6S)-6-methyl-5-[(3,4,5-trifluorophenyl)carbamoyl]-6,7-dihydro-4H-pyrazolo[1,5-a]pyrazin-3-yl]-5-oxo-pyrrolidin-3-yl]benzoic acid], for which the EC50 stood at 57 nM. Molecule `C[C@H]1Cn2ncc(N3CC(c4cc(F)ccc4C(=O)O)CC3=O)c2CN1C(=O)Nc1cc(F)c(F)c(F)c1` (stereo partly drawn) [Example 14, 4-Fluoro-2-[1-[(6S)-6-methyl-5-[(3,4,5-trifluorophenyl)carbamoyl]-6,7-dihydro-4H-pyrazolo[1,5-a]pyrazin-3-yl]-5-oxo-pyrrolidin-3-yl]benzoic acid] displayed an EC50 of 30 nM. For the molecule `C[C@H]1Cn2ncc(N3CC(N4CCC[C@H]4C(=O)O)CC3=O)c2CN1C(=O)Nc1cc(F)c(F)c(F)c1` (stereo partly drawn) [Example 1, (2S)-1-[1-[(6S)-6-methyl-5-[(3,4,5-trifluorophenyl)carbamoyl]-6,7-dihydro-4H-pyrazolo[1,5-a]pyrazin-3-yl]-5-oxo-pyrrolidin-3-yl]pyrrolidine-2-carboxylic acid], the EC50 amounted to 126 nM.

Staying with this assay, now noted: extracellular HBV DNA by qPCR, five days after compound treatment.
On to `C[C@H]1Cn2ncc(N3CC(c4cccc(F)c4C(=O)O)CC3=O)c2CN1C(=O)Nc1cc(F)c(F)c(F)c1` (single isomer, unassigned) [Example 11-1], for which it took 312 nM to reach a half-maximal effect (EC50).

`C[C@H]1Cn2ncc(N3CC(c4c(F)cccc4C(=O)O)CC3=O)c2CN1C(=O)Nc1cc(F)c(F)c(F)c1` (single isomer, unassigned) [Example 10-2] showed an EC50 of 17 nM. `C[C@H]1[C@H](C)n2ncc(N3CC(N4CCC[C@H]4C(=O)O)CC3=O)c2CN1C(=O)Nc1cc(F)c(F)c(F)c1` (stereo partly drawn) [Example 6-2, (2S)-1-[1-[(6S,7S)-6,7-dimethyl-5-[(3,4,5-trifluorophenyl)carbamoyl]-6,7-dihydro-4H-pyrazolo[1,5-a]pyrazin-3-yl]-5-oxo-pyrrolidin-3-yl]pyrrolidine-2-carboxylic acid] yielded an EC50 of 99 nM. Same read-out and setting: the result for `C[C@H]1Cn2ncc(N3CC(c4cccc(F)c4C(=O)O)CC3=O)c2CN1C(=O)Nc1cc(F)c(F)c(F)c1` (single isomer, unassigned) [Example 11-2] reads 77 nM; that for `C[C@H]1Cn2ncc(N3CC(c4c(F)cccc4C(=O)O)CC3=O)c2CN1C(=O)Nc1cc(F)c(F)c(F)c1` (single isomer, unassigned) [Example 10-1], 106 nM. As to `C[C@H]1Cn2ncc(N3CC(c4ccccc4C(=O)O)CC3=O)c2CN1C(=O)Nc1cc(F)c(F)c(F)c1` (single isomer, unassigned) [Example 7-1], the EC50 was found to be 34 nM. The molecule `C[C@H]1Cn2ncc(N3CC(c4ccccc4C(=O)O)CC3=O)c2CN1C(=O)Nc1cc(F)c(F)c(F)c1` (single isomer, unassigned) [Example 7-2] registered an EC50 of 14 nM.

These data come from patent US10562905B2, “Carboxy tetrahydropyrazolopyrazine compounds for the treatment of infectious diseases” (Hoffmann-La Roche Inc., priority 2016, dated 2020).
